Here are results for 21 compounds from patent US20230257415A1, “COMPOUNDS FOR TREATING CNS DISORDERS” (SAGE THERAPEUTICS, INC., priority 2019, published 2023).

What is called IC50 is the concentration that gives 50% inhibition.

This assay has as its target GABAA receptor. Nature of the assay: [35S]-TBPS binding assay, rat brain cortical membranes, in the presence of GABA. The note with it: inhibition of 3 nM [35S]-TBPS binding, 5 mM GABA, 90 min, room temp. The protocol:
[35S]-t-Butylbicyclophosphorothionate (TBPS) binding assays using rat brain cortical membranes in the presence of 5 mM GABA has been described (Gee et al, J. Pharmacol. Exp. Ther. 1987, 241, 346-353; Hawkinson et al, Mol. Pharmacol. 1994, 46, 977-985; Lewin, A.H et al., Mol. Pharmacol. 1989, 35, 189-194).
Briefly, cortices are rapidly removed following decapitation of carbon dioxide-anesthetized Sprague-Dawley rats (200-250 g). The cortices are homogenized in 10 volumes of ice-cold 0.32 M sucrose using a glass/teflon homogenizer and centrifuged at 1500 x g for 10 min at 4° C. The resultant supernatants are centrifuged at 10,000 x g for 20 min at 4° C. to obtain the P2 pellets. The P2 pellets are resuspended in 200 mM NaCl/50 mM Na-K phosphate pH 7.4 buffer and centrifuged at 10,000 x g for 10 min at 4° C. This washing procedure is repeated twice and the pellets are resuspended in 10 volumes of buffer. Aliquots ([…]) of the membrane suspensions are incubated with 3 nM [^35S]-TBPS and […] aliquots of test drug dissolved in dimethyl sulfoxide (DMSO) (final 0.5%) in the presence of 5 mM GABA. The incubation is brought to a final volume of 1.0 mL with buffer. […] Following a 90 min incubation at room temp, the assays are terminated by filtration through glass fiber filters (Schleicher and Schuell No. 32) using a cell harvester (Brandel) and rinsed three times with ice-cold buffer. Filter bound radioactivity is measured by liquid scintillation spectrometry. Non-linear curve fitting of the overall data for each drug averaged for each concentration is done using Prism (GraphPad). […] The concentration of test compound producing 50% inhibition (IC50) of specific binding and the maximal extent of inhibition (Imax) are determined for the individual experiments with the same model used for the overall data and then the means ± SEM.s of the individual experiments are calculated.
Various compounds are or can be screened to determine their potential as modulators of [^35S]-TBPS binding in vitro. These assays are or can be performed in accordance with the above.
Regarding `CCC[C@@]1(O)CC[C@@]2(C)[C@@H](CC[C@@H]3[C@@H]2CC[C@]2(C)[C@@H]([C@@H](C)Cn4nnc(C)n4)CCC[C@@H]32)C1` [Example 9, (2R,4aS,4bS,6aS,7R,10aS,10bR,12aS)-4a,6a-dimethyl-7-((R)-1-(5-methyl-2H-tetrazol-2-yl)propan-2-yl)-2-propyloctadecahydrochrysen-2-ol], the IC50 lay in the range of 100 to 1000 nM.

For the compound `CC[C@]12CC[C@H]3[C@@H](CC[C@@H]4C[C@](C)(O)CC[C@@H]43)[C@@H]1CCC[C@@H]2[C@H](C)NC(=O)c1ccc(C#N)cc1` [Example 54, 4-cyano-N-((S)-1-((1S,4aS,4bR,6aR,8R,10aS,10bR,12aS)-12a-ethyl-8-hydroxy-8-methyloctadecahydrochrysen-1-yl)ethyl)benzamide], the IC50 is 100 to 1000 nM.

Regarding `CC[C@]12CCC3[C@H]4CC[C@](O)(COC)C[C@H]4CC[C@H]3[C@@H]1CCC[C@@H]2CNC(=O)c1ccc(C#N)cc1` (stereo partly drawn) [Example 41, 4-cyano-N-(((1S,4aS,4bR,6aR,8R,10aS,12aS)-12a-ethyl-8-hydroxy-8-(methoxymethyl)octadecahydrochrysen-1-yl)methyl)benzamide], the 50% inhibitory concentration (IC50) fell in the range of 100 to 1000 nM.

For the compound `COC[C@@]1(O)CC[C@@H]2C3CC[C@]4(C)[C@@H]([C@H](C)NC(=O)c5ccc(C#N)cc5)CCC[C@H]4[C@@H]3CC[C@@H]2C1` (stereo partly drawn) [Example 47, 4-cyano-N-((1S)-1-((1S,4aS,4bR,6aR,8R,10aS,12aS)-8-hydroxy-8-(methoxymethyl)-12a-methyloctadecahydrochrysen-1-yl)ethyl)benzamide], the IC50 was 100 to 1000 nM.

Take `Cn1nccc1C(=O)NC[C@H]1CCC[C@H]2[C@@H]3CC[C@@H]4C[C@](C)(O)CC[C@@H]4[C@H]3CC[C@]12C` [Example 33, N-(((1S,4aS,4bR,6aR,8R,10aS,10bR,12aS)-8-hydroxy-8,12a-dimethyloctadecahydrochrysen-1-yl)methyl)-1-methyl-1H-pyrazole-5-carboxamide]: the IC50 fell in the range of 100 to 1000 nM.

Regarding `COC[C@@]1(O)CC[C@@H]2C3CC[C@]4(C)[C@@H]([C@@H](C)NC(=O)c5ccc(F)cc5)CCC[C@H]4[C@@H]3CC[C@@H]2C1` (stereo partly drawn) [Example 44, 4-fluoro-N-((1R)-1-((1S,4aS,4bR,6aR,8R,10aS,12aS)-8-hydroxy-8-(methoxymethyl)-12a-methyloctadecahydrochrysen-1-yl)ethyl)benzamide], the IC50 fell in the range of 100 to 1000 nM.

For `C[C@@H]1CC[C@H]([C@H](C)Cn2cc(C#N)cn2)[C@@]2(C)CC[C@H]3[C@@H](CC[C@@H]4C[C@](C)(O)CC[C@@H]43)[C@H]12` [Example 12, 1-((S)-2-((1R,4R,4aS,4bR,6aR,8R,10aS,10bR,12aR)-8-hydroxy-4,8,12a-trimethyloctadecahydrochrysen-1-yl)propyl)-1H-pyrazole-4-carbonitrile], the IC50 is less than 100 nM.

For `CCC[C@@]1(O)CC[C@@]2(C)[C@@H](CC[C@@H]3[C@@H]2CC[C@]2(C)[C@@H]([C@@H](C)Cn4nnnc4C)CCC[C@@H]32)C1` [Example 10, (2R,4aS,4bS,6aS,7R,10aS,10bR,12aS)-4a,6a-dimethyl-7-((R)-1-(5-methyl-1H-tetrazol-1-yl)propan-2-yl)-2-propyloctadecahydrochrysen-2-ol], the IC50 lay within 100 to 1000 nM.

With `C[C@H](Cn1cc(C#N)cn1)[C@H]1CCC[C@H]2[C@@H]3CC[C@@H]4C[C@](C)(O)CC[C@@H]4[C@H]3CC[C@]12C` [Example 1, 1-((S)-2-((1R,4aS,4bR,6aR,8R,10aS,10bR,12aS)-8-hydroxy-8,12a-dimethyloctadecahydrochrysen-1-yl)propyl)-1H-pyrazole-4-carbonitrile], the 50% inhibitory concentration (IC50) was less than 100 nM.

On to `CN(C[C@H]1CCC[C@H]2[C@@H]3CC[C@@H]4C[C@](C)(O)CC[C@@H]4[C@H]3CC[C@]12C)C(=O)c1ccccc1` [Example 23, N-(((1S,4aS,4bR,6aR,8R,10aS,10bR,12aS)-8-hydroxy-8,12a-dimethyloctadecahydrochrysen-1-yl)-methyl)-N-methylbenzamide], for which the half-maximal inhibitory concentration (IC50) was in the range of 100 to 1000 nM.

Consider `C[C@@]1(O)CC[C@H]2[C@H](CC[C@@H]3[C@@H]2CC[C@]2(C)[C@@H](CNS(=O)(=O)C4CC4)CCC[C@@H]32)C1` [Example 32, N-(((1S,4aS,4bR,6aR,8R,10aS,10bR,12aS)-8-hydroxy-8,12a-dimethyloctadecahydrochrysen-1-yl)methyl)cyclopropanesulfonamide], for which the IC50 was in the range of 100 to 1000 nM.

For `C[C@@H](Cn1cc(C#N)cn1)[C@H]1CC[C@H]2[C@@H]3CC[C@H]4CC[C@](C)(O)CC[C@]4(C)[C@H]3CC[C@]12C` [Example 19, 1-((R)-2-((1R,3aS,3bR,5aS,8S,10aS,10bS,12aS)-8-hydroxy-8,10a,12a-trimethyloctadecahydrocyclohepta[a]cyclopenta[f]naphthalen-1-yl)propyl)-1H-pyrazole-4-carbonitrile], the IC50 was less than 100 nM.

Consider `C[C@@H](Cn1cc(C#N)cn1)[C@H]1CCC[C@H]2[C@@H]3CC[C@@H]4C[C@](C)(O)CC[C@@H]4[C@H]3CC[C@]12C` [Example 4, 1-((R)-2-((1R,4aS,4bR,6aR,8R,10aS,10bR,12aS)-8-hydroxy-8,12a-dimethyloctadecahydrochrysen-1-yl)propyl)-1H-pyrazole-4-carbonitrile], for which the 50% inhibitory concentration (IC50) is less than 100 nM.

For the compound `CCOC[C@@]1(O)CC[C@@H]2C3CC[C@]4(C)[C@@H]([C@H](C)NC(=O)c5ccc(F)cc5F)CCC[C@H]4[C@@H]3CC[C@@H]2C1` (stereo partly drawn) [Example 53, N-((1S)-1-((1S,4aS,4bR,6aR,8R,10aS,12aS)-8-(ethoxymethyl)-8-hydroxy-12a-methyloctadecahydrochrysen-1-yl)ethyl)-2,4-difluorobenzamide], the half-inhibitory concentration (IC50) was in the range of 100 to 1000 nM.

Turning to `C[C@@]1(O)CC[C@H]2[C@H](CC[C@@H]3[C@@H]2CC[C@]2(C)[C@@H](CNS(=O)(=O)c4ccccc4)CCC[C@@H]32)C1` [Example 25, N-(((1S,4aS,4bR,6aR,8R,10aS,10bR,12aS)-8-hydroxy-8,12a-dimethyloctadecahydrochrysen-1-yl)methyl)benzenesulfonamide], the IC50 is less than 100 nM.

As to `CC[C@]12CC[C@@](C)(O)C[C@H]1CC[C@H]1[C@@H]3CCC[C@H](CN(C)C(=O)c4ccccc4)[C@@]3(C)CC[C@@H]12` [Example 37, N-(((1S,4aS,4bS,6aR,8R,10aS,10bS,12aS)-10a-ethyl-8-hydroxy-8,12a-dimethyloctadecahydrochrysen-1-yl)methyl)-N-methylbenzamide], the IC50 lay within 100 to 1000 nM.

As to `CN(C[C@H]1CCC[C@H]2[C@@H]3CC[C@@H]4C[C@](C)(O)CC[C@@H]4[C@H]3CC[C@]12C)S(=O)(=O)c1ccccc1` [Example 26, N-(((1S,4aS,4bR,6aR,8R,10aS,10bR,12aS)-8-hydroxy-8,12a-dimethyloctadecahydrochrysen-1-yl)methyl)-N-methylbenzenesulfonamide], the half-inhibitory concentration (IC50) is less than 100 nM.

For the compound `C[C@@]1(O)CC[C@H]2[C@H](CC[C@@H]3[C@@H]2CC[C@]2(C)[C@@H](CNC(=O)c4ccc(C#N)cc4)CCC[C@@H]32)C1` [Example 34, 4-cyano-N-(((1S,4aS,4bR,6aR,8R,10aS,10bR,12aS)-8-hydroxy-8,12a-dimethyloctadecahydrochrysen-1-yl)methyl)benzamide], the half-inhibitory concentration (IC50) is 100 to 1000 nM.

As to `C[C@@]1(O)CC[C@H]2[C@H](CC[C@@H]3[C@@H]2CC[C@]2(C)[C@@H](CNC(=O)c4ccccc4)CCC[C@@H]32)C1` [Example 24, N-(((1S,4aS,4bR6aR,8R,10aS,10bR,12aS)-8-hydroxy-8,12a-dimethyloctadecahydrochrysen-1-yl)methyl)benzamide], the IC50 was in the range of 100 to 1000 nM.

For `COC[C@@]1(O)CC[C@H]2[C@H](CC[C@@H]3[C@@H]2CC[C@]2(C)[C@@H]([C@H](C)Cn4cc(C#N)cn4)CCC[C@@H]32)C1` [Example 2, 1-((S)-2-((1R,4aS,4bR,6aR,8R,10aS,10bR,12aS)-8-hydroxy-8-(methoxymethyl)-12a-methyloctadecahydrochrysen-1-yl)propyl)-1H-pyrazole-4-carbonitrile], the half-inhibitory concentration (IC50) was less than 100 nM.

In the case of `CCOC[C@@]1(O)CC[C@@H]2C3CC[C@]4(C)[C@@H]([C@@H](C)NC(=O)c5ccc(C#N)cc5F)CCC[C@H]4[C@@H]3CC[C@@H]2C1` (stereo partly drawn) [Example 56], the half-maximal inhibitory concentration (IC50) is 100 to 1000 nM.
